Results taken from ChEMBL document CHEMBL4052645, “Discovery of potent and efficacious pyrrolopyridazines as dual JAK1/3 inhibitors” (Bioorg Med Chem Lett, 2017).

What was measured:
[1] = target: Uncharacterized serine/threonine-protein kinase SBK3 (Homo sapiens) (UniProt P0C264); test: Inhibition of wild-type human partial length SGK110 (L22 to R329 residues) expressed in bacterial expression system assessed as residual activity at 50 nM by Kinomescan method relative to control
[2] = target: Epidermal growth factor receptor (Homo sapiens) (UniProt P00533); test: Inhibition of wild-type human partial length EGFR (R669 to V1011 residues) expressed in bacterial expression system assessed as residual activity at 50 nM by Kinomescan method relative to control
[3] = target: MAP/microtubule affinity-regulating kinase 4 (Homo sapiens) (UniProt Q96L34); test: Inhibition of wild-type human partial length MARK4 (K29 to G340 residues) expressed in bacterial expression system assessed as residual activity at 50 nM by Kinomescan method relative to control
[4] = target: Vascular endothelial growth factor receptor 3 (Homo sapiens) (UniProt P35916); test: Inhibition of wild-type human partial length FLT4 (E821 to E1196 residues) expressed in bacterial expression system assessed as residual activity at 50 nM by Kinomescan method relative to control
[5] = target: Activin receptor type-1B (Homo sapiens) (UniProt P36896); test: Inhibition of wild-type human ALK4 (S187 to I505 residues) expressed in bacterial expression system assessed as residual activity at 50 nM by Kinomescan method relative to control
[6] = target: G protein-coupled receptor kinase 4 (Homo sapiens) (UniProt P32298); test: Inhibition of wild-type human full length GPRK4 (M1 to C578 residues) expressed in bacterial expression system assessed as residual activity at 50 nM by Kinomescan method relative to control
[7] = target: Dual specificity tyrosine-phosphorylation-regulated kinase 2 (Homo sapiens) (UniProt Q92630); test: Inhibition of wild-type human full length DYRK2 (M1 to S528 residues) expressed in mammalian expression system assessed as residual activity at 50 nM by Kinomescan method relative to control
Plasmodium falciparum = test: Inhibition of wild-type Plasmodium falciparum full length PFB0815W (M1 to S524 residues) expressed in mammalian expression system assessed as residual activity at 50 nM by Kinomescan method relative to control
[8] = target: Phosphatidylinositol 4,5-bisphosphate 3-kinase catalytic subunit delta isoform (Homo sapiens) (UniProt O00329); test: Inhibition of wild-type human partial length PIK3CD (R108 to Q1044 residues) expressed in mammalian expression system assessed as residual activity at 50 nM by Kinomescan method relative to control
[9] = target: Phosphatidylinositol 4,5-bisphosphate 3-kinase catalytic subunit beta isoform (Homo sapiens) (UniProt P42338); test: Inhibition of wild-type human partial length PI3KCB (P118 to S1070 residues) expressed in mammalian expression system assessed as residual activity at 50 nM by Kinomescan method relative to control
[10] = target: Serine/threonine-protein kinase 38 (Homo sapiens) (UniProt Q15208); test: Inhibition of wild-type human partial length NDR1 (N33 to E449 residues) expressed in mammalian expression system assessed as residual activity at 50 nM by Kinomescan method relative to control
[11] = target: Myosin-IIIa (Homo sapiens) (UniProt Q8NEV4); test: Inhibition of wild-type human partial length MYO3A (M1 to K338 residues) expressed in bacterial expression system assessed as residual activity at 50 nM by Kinomescan method relative to control
[12] = target: Interleukin-1 receptor-associated kinase 3 (Homo sapiens) (UniProt Q9Y616); test: Inhibition of wild-type human partial length IRAK3 (V147 to E596 residues) expressed in bacterial expression system assessed as residual activity at 50 nM by Kinomescan method relative to control
[13] = target: MAP/microtubule affinity-regulating kinase 3 (Homo sapiens) (UniProt P27448); test: Inhibition of wild-type human full length MARK3 (M1 to L729 residues) expressed in bacterial expression system assessed as residual activity at 50 nM by Kinomescan method relative to control
[14] = target: Mitogen-activated protein kinase 14 (Homo sapiens) (UniProt Q16539); test: Inhibition of wild-type human full length p38-alpha (M1 to S360 residues) expressed in bacterial expression system assessed as residual activity at 50 nM by Kinomescan method relative to control
[15] = target: Serine/threonine-protein kinase Chk2 (Homo sapiens) (UniProt O96017); test: Inhibition of wild-type human partial length CHK2 (S253 to E574 residues) expressed in bacterial expression system assessed as residual activity at 50 nM by Kinomescan method relative to control
[16] = target: Receptor tyrosine-protein kinase erbB-4 (Homo sapiens) (UniProt Q15303); test: Inhibition of wild-type human partial length ERBB4 (L690 to K994 residues) expressed in bacterial expression system assessed as residual activity at 50 nM by Kinomescan method relative to control
[17] = target: Cyclin-dependent kinase-like 5 (Homo sapiens) (UniProt O76039); test: Inhibition of wild-type human partial length CDKL5 (M1 to S337 residues) expressed in mammalian expression system assessed as residual activity at 50 nM by Kinomescan method relative to control
[18] = target: Serine/threonine-protein kinase Nek11 (Homo sapiens) (UniProt Q8NG66); test: Inhibition of wild-type human partial length NEK11 (M1 to E313 residues) expressed in mammalian expression system assessed as residual activity at 50 nM by Kinomescan method relative to control
[19] = target: Phosphatidylinositol 4-phosphate 5-kinase type-1 alpha (Homo sapiens) (UniProt Q99755); test: Inhibition of human PIP5K1A (M1 to H562 residues) expressed in bacterial expression system assessed as residual activity at 50 nM by KINOMEscan assay relative to control
[20] = target: Cyclin-dependent kinase 4/cyclin D1 (Homo sapiens) (UniProt P11802+P24385); test: Inhibition of wild-type human full length CDK4/cyclinD1 (M1 to E303 residues) expressed in mammalian expression system assessed as residual activity at 50 nM by Kinomescan method relative to control
[21] = target: Serine/threonine-protein kinase LATS1 (Homo sapiens) (UniProt O95835); test: Inhibition of wild-type human partial length LATS1 (Q678 to V1130 residues) expressed in bacterial expression system assessed as residual activity at 50 nM by Kinomescan method relative to control
[22] = target: Calcium/calmodulin-dependent protein kinase kinase 2 (Homo sapiens) (UniProt Q96RR4); test: Inhibition of wild-type human partial length CAMKK2 (D65 to V471 residues) expressed in bacterial expression system assessed as residual activity at 50 nM by Kinomescan method relative to control
[23] = target: Dual specificity mitogen-activated protein kinase kinase 4 (Homo sapiens) (UniProt P45985); test: Inhibition of wild-type human partial length MAP2K4 (S84 to D399 residues) expressed in mammalian expression system assessed as residual activity at 50 nM by Kinomescan method relative to control
JAK2 = JAK2 (Homo sapiens, UniProt O60674); test: Inhibition of human JAK2 (A829 to G1132 residues) expressed in mammalian expression system assessed as residual activity at 50 nM by KINOMEscan assay relative to control; conditions: read-out: Activity

Sequence of MAP/microtubule affinity-regulating kinase 3 (Homo sapiens) (P27448 whole entry, looked up, the tested form may be a part): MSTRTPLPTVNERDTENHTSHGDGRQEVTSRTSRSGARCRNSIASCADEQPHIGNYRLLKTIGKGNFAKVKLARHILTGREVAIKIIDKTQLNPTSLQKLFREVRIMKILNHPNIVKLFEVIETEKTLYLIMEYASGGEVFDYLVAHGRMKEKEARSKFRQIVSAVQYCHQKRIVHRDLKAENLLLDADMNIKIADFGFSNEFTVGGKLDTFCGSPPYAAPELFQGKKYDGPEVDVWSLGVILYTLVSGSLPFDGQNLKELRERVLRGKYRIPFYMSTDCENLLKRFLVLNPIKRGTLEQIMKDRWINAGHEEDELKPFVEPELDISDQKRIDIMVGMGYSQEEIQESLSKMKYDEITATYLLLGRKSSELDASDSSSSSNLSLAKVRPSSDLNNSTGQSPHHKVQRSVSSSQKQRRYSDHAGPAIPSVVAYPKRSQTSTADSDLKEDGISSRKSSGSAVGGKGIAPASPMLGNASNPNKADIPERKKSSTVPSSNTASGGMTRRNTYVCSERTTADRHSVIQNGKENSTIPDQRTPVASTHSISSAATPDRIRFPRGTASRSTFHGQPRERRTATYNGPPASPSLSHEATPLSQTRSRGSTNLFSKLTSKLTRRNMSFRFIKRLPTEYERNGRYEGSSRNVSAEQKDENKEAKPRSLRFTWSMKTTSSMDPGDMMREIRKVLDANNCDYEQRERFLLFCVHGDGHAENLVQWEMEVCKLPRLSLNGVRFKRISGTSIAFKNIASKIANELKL
Sequence of Mitogen-activated protein kinase 14 (Homo sapiens) (Q16539 whole entry, the tested form may be a part): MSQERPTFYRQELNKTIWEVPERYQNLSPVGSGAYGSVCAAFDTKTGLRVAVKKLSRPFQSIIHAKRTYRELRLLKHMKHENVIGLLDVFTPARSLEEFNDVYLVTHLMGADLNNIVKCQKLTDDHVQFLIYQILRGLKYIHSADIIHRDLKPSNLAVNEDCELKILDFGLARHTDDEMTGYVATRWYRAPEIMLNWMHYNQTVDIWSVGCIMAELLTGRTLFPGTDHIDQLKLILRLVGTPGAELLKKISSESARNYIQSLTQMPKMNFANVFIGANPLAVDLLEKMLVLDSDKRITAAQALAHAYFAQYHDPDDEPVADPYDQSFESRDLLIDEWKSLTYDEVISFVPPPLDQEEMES
Sequence of MAP/microtubule affinity-regulating kinase 4 (Homo sapiens) (Q96L34 whole entry, the tested form may be a part): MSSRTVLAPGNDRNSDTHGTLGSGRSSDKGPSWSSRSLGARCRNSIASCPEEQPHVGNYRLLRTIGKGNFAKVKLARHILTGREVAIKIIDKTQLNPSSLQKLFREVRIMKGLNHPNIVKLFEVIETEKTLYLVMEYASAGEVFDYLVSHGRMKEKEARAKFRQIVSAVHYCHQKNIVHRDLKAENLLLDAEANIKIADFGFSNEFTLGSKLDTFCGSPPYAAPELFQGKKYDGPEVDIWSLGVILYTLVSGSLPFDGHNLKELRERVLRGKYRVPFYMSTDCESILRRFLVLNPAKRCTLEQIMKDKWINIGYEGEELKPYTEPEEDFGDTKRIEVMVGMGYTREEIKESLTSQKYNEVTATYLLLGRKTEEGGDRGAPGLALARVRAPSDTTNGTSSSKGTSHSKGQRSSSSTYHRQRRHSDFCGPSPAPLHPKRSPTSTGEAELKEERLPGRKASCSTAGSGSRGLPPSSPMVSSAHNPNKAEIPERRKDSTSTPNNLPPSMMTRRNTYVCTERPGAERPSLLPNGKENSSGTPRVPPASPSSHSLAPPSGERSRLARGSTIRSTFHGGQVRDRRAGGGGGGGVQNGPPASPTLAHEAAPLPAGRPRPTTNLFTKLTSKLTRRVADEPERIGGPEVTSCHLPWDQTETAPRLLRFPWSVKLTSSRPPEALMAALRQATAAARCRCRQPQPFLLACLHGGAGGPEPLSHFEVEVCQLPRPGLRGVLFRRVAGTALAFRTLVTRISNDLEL
Sequence of Vascular endothelial growth factor receptor 3 (Homo sapiens) (P35916 whole entry, the tested form may be a part): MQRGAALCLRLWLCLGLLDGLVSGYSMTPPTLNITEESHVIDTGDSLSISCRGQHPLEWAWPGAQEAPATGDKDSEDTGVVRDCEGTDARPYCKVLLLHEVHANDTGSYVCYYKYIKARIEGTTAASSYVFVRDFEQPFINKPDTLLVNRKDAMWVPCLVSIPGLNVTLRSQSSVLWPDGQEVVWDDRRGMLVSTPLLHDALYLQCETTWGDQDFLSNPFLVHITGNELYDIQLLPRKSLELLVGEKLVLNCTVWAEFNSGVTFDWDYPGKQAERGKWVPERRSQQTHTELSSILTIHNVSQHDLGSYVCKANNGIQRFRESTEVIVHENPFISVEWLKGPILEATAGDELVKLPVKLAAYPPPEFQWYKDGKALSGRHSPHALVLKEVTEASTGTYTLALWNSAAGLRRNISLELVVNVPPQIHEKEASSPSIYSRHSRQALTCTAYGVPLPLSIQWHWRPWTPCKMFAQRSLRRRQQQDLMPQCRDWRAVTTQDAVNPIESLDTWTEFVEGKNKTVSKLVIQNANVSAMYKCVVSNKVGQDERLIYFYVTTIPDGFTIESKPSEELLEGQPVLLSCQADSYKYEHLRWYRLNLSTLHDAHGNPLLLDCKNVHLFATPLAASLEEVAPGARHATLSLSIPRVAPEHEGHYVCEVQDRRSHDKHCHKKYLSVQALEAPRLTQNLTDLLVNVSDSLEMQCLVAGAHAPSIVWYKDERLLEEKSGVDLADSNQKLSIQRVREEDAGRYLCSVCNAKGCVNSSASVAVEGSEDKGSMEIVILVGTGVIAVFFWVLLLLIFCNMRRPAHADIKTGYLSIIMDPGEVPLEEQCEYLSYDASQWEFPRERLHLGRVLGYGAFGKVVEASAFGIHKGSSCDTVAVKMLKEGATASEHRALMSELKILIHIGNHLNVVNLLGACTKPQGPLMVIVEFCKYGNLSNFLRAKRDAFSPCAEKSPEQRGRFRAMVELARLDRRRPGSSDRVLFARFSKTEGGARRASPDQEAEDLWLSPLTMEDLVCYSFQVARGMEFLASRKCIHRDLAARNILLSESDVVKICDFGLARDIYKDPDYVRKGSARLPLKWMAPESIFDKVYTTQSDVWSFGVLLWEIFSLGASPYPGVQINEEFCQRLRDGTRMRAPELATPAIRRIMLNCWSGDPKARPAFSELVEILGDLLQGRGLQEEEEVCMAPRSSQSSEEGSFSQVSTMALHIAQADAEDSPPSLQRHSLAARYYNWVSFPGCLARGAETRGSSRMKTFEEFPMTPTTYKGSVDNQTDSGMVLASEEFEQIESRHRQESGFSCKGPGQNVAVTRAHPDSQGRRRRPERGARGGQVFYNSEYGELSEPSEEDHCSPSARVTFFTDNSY
Sequence of Activin receptor type-1B (Homo sapiens) (P36896 whole entry, the tested form may be a part): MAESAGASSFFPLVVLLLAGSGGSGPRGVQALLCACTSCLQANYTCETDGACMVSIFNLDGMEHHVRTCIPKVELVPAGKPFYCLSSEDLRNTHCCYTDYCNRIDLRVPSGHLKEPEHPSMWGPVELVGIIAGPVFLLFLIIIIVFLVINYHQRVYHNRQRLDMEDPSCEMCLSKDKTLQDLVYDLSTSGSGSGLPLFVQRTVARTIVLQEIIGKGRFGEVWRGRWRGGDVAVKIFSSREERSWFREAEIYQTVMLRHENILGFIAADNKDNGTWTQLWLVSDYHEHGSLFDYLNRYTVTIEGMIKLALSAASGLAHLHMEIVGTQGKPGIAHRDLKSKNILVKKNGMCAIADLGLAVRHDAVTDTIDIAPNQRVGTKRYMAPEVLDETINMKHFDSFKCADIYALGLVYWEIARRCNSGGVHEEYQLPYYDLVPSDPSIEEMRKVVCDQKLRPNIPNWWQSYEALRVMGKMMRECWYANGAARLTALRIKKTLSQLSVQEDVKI
Sequence of Dual specificity tyrosine-phosphorylation-regulated kinase 2 (Homo sapiens) (Q92630 whole entry, the tested form may be a part): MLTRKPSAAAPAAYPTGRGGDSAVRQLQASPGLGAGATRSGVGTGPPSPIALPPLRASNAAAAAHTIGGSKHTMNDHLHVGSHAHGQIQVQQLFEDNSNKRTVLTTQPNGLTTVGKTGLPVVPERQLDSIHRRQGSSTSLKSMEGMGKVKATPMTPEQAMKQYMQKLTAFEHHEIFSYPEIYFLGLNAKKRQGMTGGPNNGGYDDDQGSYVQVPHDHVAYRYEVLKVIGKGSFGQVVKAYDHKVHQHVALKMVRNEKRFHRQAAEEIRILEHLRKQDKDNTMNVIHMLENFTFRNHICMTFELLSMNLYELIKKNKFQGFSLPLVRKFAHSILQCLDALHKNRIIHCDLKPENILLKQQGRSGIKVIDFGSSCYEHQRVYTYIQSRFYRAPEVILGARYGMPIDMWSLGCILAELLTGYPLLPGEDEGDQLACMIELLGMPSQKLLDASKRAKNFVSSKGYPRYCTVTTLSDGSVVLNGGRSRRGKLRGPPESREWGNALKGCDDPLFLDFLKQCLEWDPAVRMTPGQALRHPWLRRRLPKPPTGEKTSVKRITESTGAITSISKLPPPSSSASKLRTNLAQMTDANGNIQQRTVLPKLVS
Sequence of G protein-coupled receptor kinase 4 (Homo sapiens) (P32298 whole entry, looked up, the tested form may be a part): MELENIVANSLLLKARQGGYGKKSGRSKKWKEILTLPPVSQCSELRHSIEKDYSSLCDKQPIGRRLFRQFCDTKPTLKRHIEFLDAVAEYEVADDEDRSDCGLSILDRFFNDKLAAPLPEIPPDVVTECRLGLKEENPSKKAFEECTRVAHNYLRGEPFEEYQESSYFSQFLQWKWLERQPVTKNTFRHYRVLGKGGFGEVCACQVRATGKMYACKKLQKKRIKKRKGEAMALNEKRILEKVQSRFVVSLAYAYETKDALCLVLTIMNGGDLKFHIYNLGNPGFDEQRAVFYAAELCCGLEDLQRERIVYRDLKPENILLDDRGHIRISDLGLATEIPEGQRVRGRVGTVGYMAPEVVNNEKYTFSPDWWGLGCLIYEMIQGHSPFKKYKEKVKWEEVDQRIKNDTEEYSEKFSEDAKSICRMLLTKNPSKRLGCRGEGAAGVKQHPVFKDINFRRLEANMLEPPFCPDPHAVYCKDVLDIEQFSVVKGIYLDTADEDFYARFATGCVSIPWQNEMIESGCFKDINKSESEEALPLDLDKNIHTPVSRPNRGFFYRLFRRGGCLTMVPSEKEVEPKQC

Row | Compound | Activity [1] [%] | Activity [2] [%] | Activity [3] [%] | Activity [4] [%] | Activity [5] [%] | Activity [6] [%] | Activity [7] [%] | Activity (Plasmodium falciparum) [%] | Activity [8] [%] | Activity [9] [%] | Activity [10] [%] | Activity [11] [%] | Activity [12] [%] | Activity [13] [%] | Activity [14] [%] | Activity [15] [%] | Activity [16] [%] | Activity [17] [%] | Activity [18] [%] | Activity [19] [%] | further results
1 | COc1ccc(-c2cc3c(N[C@@H]4CC[C@](C)(N)C4(C)C)c(C(N)=O)cnn3c2)cn1 | 62 | 100 | 93 | 86 | 66 | 100 | 100 | 100 | 100 | 100 | 99 | 94 | 100 | 100 | 100 | 100 | 100 | 90 | 99 | 17 | Activity [20]: 97%; Activity [21]: 90%; Activity [22]: 64%; Activity [23]: 100%; activity at 0.05 µM (JAK2): 17%
2 | CC1(C)[C@H](Nc2c(C(N)=O)cnn3cc(-c4ccccc4)cc23)CC[C@]1(C)N | 41 | 30 | 79 | 100 | 82 | 64 | 100 | 67 | 44 | 100 | 92 | 87 | 66 | 68 | 94 | 100 | 87 | 83 | 87 | 8.8 | Activity [20]: 100%; Activity [21]: 91%; Activity [22]: 83%; Activity [23]: 100%; activity at 0.05 µM (JAK2): 3.9%
